Tests used:
Assay type in all cases: in vivo, human
CD42 (GP-Ib) = assay: Flow cytometry, platelet surface expression of CD42 (GP-Ib) in patients undergoing coronary stenting; design: CD42 (GP-Ib), flow cytometry: unit not given here
Method: (§1) The study sought to compare the antiplatelet properties of prasugrel and clopidogrel in the frame of a Phase 2 randomized trial. Specifically, nine patients undergoing coronary stenting were randomized to one of three arms of prasugrel (40-60-60 mg loading, and 7.5-10-15 mg maintenance daily dose), or clopidogrel (300 mg/75 mg). Aspirin and GP IIb/IIIa inhibitors were allowed.

CD165 (GP37) = assay: Flow cytometry, platelet CD165 (GP37) in patients undergoing coronary stenting; design: CD165 (GP37), flow cytometry: unit not given here
Method: as §1

Thrombospondin = assay: Flow cytometry, platelet thrombospondin in patients undergoing coronary stenting; design: Thrombospondin, flow cytometry: unit not given here
Method: as §1

CD31 (PECAM-1) = assay: Flow cytometry, platelet surface expression of CD31 (PECAM-1) in patients undergoing coronary stenting
Method: as §1

PAR-1/PAR-4 (SPAN12) = assay: Flow cytometry, SPAN12 (PAR-1/PAR-4) in patients undergoing coronary stenting
Method: as §1

PAR-1/PAR-4 (WEDE15) = assay: Flow cytometry, WEDE15 (PAR-1/PAR-4) in patients undergoing coronary stenting
Method: as §1

CD40 ligand = assay: Flow cytometry, platelet CD40 ligand in patients undergoing coronary stenting; design: CD40 ligand, flow cytometry: unit not given here
Method: as §1

CD151+CD14 = assay: Flow cytometry, CD151+CD14 in patients undergoing coronary stenting; design: unit not given here
Method: as §1

CD62p (P-selectin) = assay: Flow cytometry, platelet surface expression of CD62p (P-selectin) in patients undergoing coronary stenting; design: CD62p (P-selectin), flow cytometry: unit not given here
Method: as §1

GPIIb/IIIa antigen = assay: Surface expression of GPIIb/IIIa antigen in stented patients; settings: independent of the dosing regimen; vs patients treated with clopidogrel
Method: (§2) The study sought to compare the antiplatelet properties of prasugrel and clopidogrel in the frame of a Phase 2 randomized trial. Specifically, nine patients undergoing coronary stenting were randomized to one of three arms of prasugrel (40-60-60 mg loading, and 7.5-10-15 mg maintenance daily dose), or clopidogrel (300 mg/75 mg). Aspirin and GP IIb/IIIa inhibitors were allowed. […] Applicants believe the above results are significant and establish a correlation between use of CS-747 (prasugrel) and inhibition of the activity or activation of PAR-1 and/or PAR-4 receptors. […] The correlations or trends shown in table 1 are independent of aspirin or Gb-11b inhibitor use by some patients at baseline. Confounding effects by aspirin or GB-IIb/IIIA use at baseline should be absent at 30 days.

[1] = system: GPIIb/IIIa activity with PAC-1 antibody; assay: GPIIb/IIIa activity with PAC-1 antibody in stented patients; settings: independent of the dosing regimen; vs patients treated with clopidogrel
Method: as §2

[2] = system: platelets (ADP-induced aggregation); assay: ADP-induced platelet aggregation in stented patients; settings: independent of the dosing regimen; vs patients treated with clopidogrel
Method: as §2

[3] = system: platelets (collagen-induced aggregation); assay: Collagen-induced platelet aggregation in stented patients; settings: independent of the dosing regimen; vs patients treated with clopidogrel
Method: as §2

platelets = assay: Ultegra Analyzer platelet function in stented patients; settings: independent of the dosing regimen; vs patients treated with clopidogrel
Method: as §2

[4] = 30 days after stent implantation
[5] = Baseline, patients undergoing coronary stenting
[6] = independent of the dosing regimen, vs patients treated with clopidogrel

COC(=O)[C@H](c1ccccc1Cl)N1CCc2sccc2C1 [clopidogrel, reference compound]
CD42 (GP-Ib), flow cytometry (CD42 (GP-Ib); 4 hr after stent implantation): 134.2 ± 37.3 | CD42 (GP-Ib), flow cytometry (CD42 (GP-Ib); 24 hr after stent implantation): 129.8 ± 37.6 | CD42 (GP-Ib), flow cytometry (CD42 (GP-Ib); [4]): 168.0 ± 48.0 | CD42 (GP-Ib), flow cytometry (CD42 (GP-Ib); [5]): 135.2 ± 35.1 | CD165 (GP37), flow cytometry (CD165 (GP37); 4 hr after stent implantation): 17.8 ± 5.8 | CD165 (GP37), flow cytometry (CD165 (GP37); 24 hr after stent implantation): 18.3 ± 4.2 | CD165 (GP37), flow cytometry (CD165 (GP37); [4]): 19.7 ± 3.0 | CD165 (GP37), flow cytometry (CD165 (GP37); [5]): 23.9 ± 5.2 | Thrombospondin, flow cytometry (Thrombospondin; 4 hr after stent implantation): 6.7 ± 2.0 | Thrombospondin, flow cytometry (Thrombospondin; 24 hr after stent implantation): 7.8 ± 2.8 | Thrombospondin, flow cytometry (Thrombospondin; [4]): 8.1 ± 1.3 | Thrombospondin, flow cytometry (Thrombospondin; [5]): 7.1 ± 2.0 | CD31 (PECAM-1), flow cytometry (CD31 (PECAM-1); 4 hr after stent implantation): 41.6 ± 17.3 | CD31 (PECAM-1), flow cytometry (CD31 (PECAM-1); 24 hr after stent implantation): 38.0 ± 18.9 | CD31 (PECAM-1), flow cytometry (CD31 (PECAM-1); [4]): 58.6 ± 8.4 | CD31 (PECAM-1), flow cytometry (CD31 (PECAM-1); [5]): 62.9 ± 12.2 | SPAN12 (PAR-1/PAR-4), flow cytometry (PAR-1/PAR-4 (SPAN12); 4 hr after stent implantation): 16.2 ± 5.0 | SPAN12 (PAR-1/PAR-4), flow cytometry (PAR-1/PAR-4 (SPAN12); 24 hr after stent implantation): 17.1 ± 5.3 | SPAN12 (PAR-1/PAR-4), flow cytometry (PAR-1/PAR-4 (SPAN12); [4]): 6.2 ± 0.9 | SPAN12 (PAR-1/PAR-4), flow cytometry (PAR-1/PAR-4 (SPAN12); [5]): 18.0 ± 4.8 | WEDE15 (PAR-1/PAR-4), flow cytometry (PAR-1/PAR-4 (WEDE15); 4 hr after stent implantation): 20.9 ± 9.3 | WEDE15 (PAR-1/PAR-4), flow cytometry (PAR-1/PAR-4 (WEDE15); 24 hr after stent implantation): 25.7 ± 9.6 | WEDE15 (PAR-1/PAR-4), flow cytometry (PAR-1/PAR-4 (WEDE15); [4]): 16.5 ± 3.2 | WEDE15 (PAR-1/PAR-4), flow cytometry (PAR-1/PAR-4 (WEDE15); [5]): 30.2 ± 10.9 | CD40 ligand, flow cytometry (CD40 ligand; 4 hr after stent implantation): 4.1 ± 1.3 | CD40 ligand, flow cytometry (CD40 ligand; 24 hr after stent implantation): 4.2 ± 1.3 | CD40 ligand, flow cytometry (CD40 ligand; [4]): 6.5 ± 1.6 | CD40 ligand, flow cytometry (CD40 ligand; [5]): 5.5 ± 1.3 | CD151+CD14, flow cytometry (CD151+CD14; 4 hr after stent implantation): 62.6 ± 14.4 | CD151+CD14, flow cytometry (CD151+CD14; 24 hr after stent implantation): 69.5 ± 22.4 | CD151+CD14, flow cytometry (CD151+CD14; [4]): 66.0 ± 9.5 | CD151+CD14, flow cytometry (CD151+CD14; [5]): 67.1 ± 14.5 | CD62p (P-selectin), flow cytometry (CD62p (P-selectin); 4 hr after stent implantation): 10.0 ± 3.5 | CD62p (P-selectin), flow cytometry (CD62p (P-selectin); 24 hr after stent implantation): 9.8 ± 3.6 | CD62p (P-selectin), flow cytometry (CD62p (P-selectin); [4]): 9.6 ± 1.4 | CD62p (P-selectin), flow cytometry (CD62p (P-selectin); [5]): 10.4 ± 3.4

CC(=O)Oc1cc2c(s1)CCN(C(C(=O)C1CC1)c1ccccc1F)C2 (stereo not drawn) [prasugrel, 2-acetoxy-5-(α-cyclopropylcarbonyl-2-fluorobenzyl)-4,5,6,7-tetrahydrothieno[3,2-c]pyridine]
Platelet inhibition by surface expression of GPIIb/IIIa antigen, compared with clopidogrel (GPIIb/IIIa antigen): more potent platelet inhibition | CD42 (GP-Ib), flow cytometry (CD42 (GP-Ib); 4 hr after stent implantation): 138.7 ± 38.3 | CD42 (GP-Ib), flow cytometry (CD42 (GP-Ib); 24 hr after stent implantation): 154.0 ± 39.6 | CD42 (GP-Ib), flow cytometry (CD42 (GP-Ib); [4]): 110.0 ± 47.7 | CD42 (GP-Ib), flow cytometry (CD42 (GP-Ib); [5]): 145.9 ± 35.5 | Platelet inhibition by surface expression of GPIb, compared with clopidogrel (CD42 (GP-Ib); [6]): more potent platelet inhibition | Platelet inhibition by GPIIb/IIIa activity with PAC-1 antibody, compared with clopidogrel [1]: more potent platelet inhibition | CD165 (GP37), flow cytometry (CD165 (GP37); 4 hr after stent implantation): 17.8 ± 5.6 | CD165 (GP37), flow cytometry (CD165 (GP37); 24 hr after stent implantation): 15.8 ± 5.7 | CD165 (GP37), flow cytometry (CD165 (GP37); [4]): 12.2 ± 2.8 | CD165 (GP37), flow cytometry (CD165 (GP37); [5]): 24.7 ± 2.8 | Platelet inhibition by surface expression of GP37, compared with clopidogrel (CD165 (GP37); [6]): more potent platelet inhibition | Thrombospondin, flow cytometry (Thrombospondin; 4 hr after stent implantation): 6.4 ± 1.1 | Thrombospondin, flow cytometry (Thrombospondin; 24 hr after stent implantation): 6.7 ± 1.7 | Thrombospondin, flow cytometry (Thrombospondin; [4]): 4.0 ± 0.7 | Thrombospondin, flow cytometry (Thrombospondin; [5]): 7.3 ± 2.2 | Platelet inhibition by surface expression of thrombospondin receptor, compared with clopidogrel (Thrombospondin; [6]): more potent platelet inhibition | Platelet inhibition by ADP-induced aggregation, compared with clopidogrel [2]: more potent platelet inhibition | CD31 (PECAM-1), flow cytometry (CD31 (PECAM-1); 4 hr after stent implantation): 52.5 ± 29.3 | CD31 (PECAM-1), flow cytometry (CD31 (PECAM-1); 24 hr after stent implantation): 52.8 ± 28.7 | CD31 (PECAM-1), flow cytometry (CD31 (PECAM-1); [4]): 24.6 ± 24.4 | CD31 (PECAM-1), flow cytometry (CD31 (PECAM-1); [5]): 69.9 ± 19.3 | Platelet inhibition by surface expression of PECAM-1, compared with clopidogrel (CD31 (PECAM-1); [6]): more potent platelet inhibition | SPAN12 (PAR-1/PAR-4), flow cytometry (PAR-1/PAR-4 (SPAN12); 4 hr after stent implantation): 13.3 ± 2.5 | SPAN12 (PAR-1/PAR-4), flow cytometry (PAR-1/PAR-4 (SPAN12); 24 hr after stent implantation): 12.0 ± 2.7 | SPAN12 (PAR-1/PAR-4), flow cytometry (PAR-1/PAR-4 (SPAN12); [4]): 6.6 ± 1.7 | SPAN12 (PAR-1/PAR-4), flow cytometry (PAR-1/PAR-4 (SPAN12); [5]): 19.5 ± 5.4 | WEDE15 (PAR-1/PAR-4), flow cytometry (PAR-1/PAR-4 (WEDE15); 4 hr after stent implantation): 17.0 ± 6.2 | WEDE15 (PAR-1/PAR-4), flow cytometry (PAR-1/PAR-4 (WEDE15); 24 hr after stent implantation): 19.6 ± 8.4 | WEDE15 (PAR-1/PAR-4), flow cytometry (PAR-1/PAR-4 (WEDE15); [4]): 15.3 ± 5.9 | WEDE15 (PAR-1/PAR-4), flow cytometry (PAR-1/PAR-4 (WEDE15); [5]): 37.0 ± 9.8 | CD40 ligand, flow cytometry (CD40 ligand; 4 hr after stent implantation): 4.8 ± 1.4 | CD40 ligand, flow cytometry (CD40 ligand; 24 hr after stent implantation): 4.6 ± 1.1 | CD40 ligand, flow cytometry (CD40 ligand; [4]): 3.7 ± 1.3 | CD40 ligand, flow cytometry (CD40 ligand; [5]): 6.9 ± 0.8 | Platelet inhibition by surface expression of CD40-ligand, compared with clopidogrel (CD40 ligand; [6]): more potent platelet inhibition | CD151+CD14, flow cytometry (CD151+CD14; 4 hr after stent implantation): 60.1 ± 18.9 | CD151+CD14, flow cytometry (CD151+CD14; 24 hr after stent implantation): 62.7 ± 29.2 | CD151+CD14, flow cytometry (CD151+CD14; [4]): 61.8 ± 23.0 | CD151+CD14, flow cytometry (CD151+CD14; [5]): 73.0 ± 11.1 | Platelet inhibition by collagen-induced aggregation, compared with clopidogrel [3]: more potent platelet inhibition | Platelet inhibition by Ultegra Analyzer, compared with clopidogrel (platelets): more potent platelet inhibition | CD62p (P-selectin), flow cytometry (CD62p (P-selectin); 4 hr after stent implantation): 8.9 ± 3.3 | CD62p (P-selectin), flow cytometry (CD62p (P-selectin); 24 hr after stent implantation): 7.9 ± 1.4 | CD62p (P-selectin), flow cytometry (CD62p (P-selectin); [4]): 5.2 ± 2.3 | CD62p (P-selectin), flow cytometry (CD62p (P-selectin); [5]): 10.8 ± 4.1 | Platelet inhibition by surface expression of P-selectin, compared with clopidogrel (CD62p (P-selectin); [6]): more potent platelet inhibition
